{"source": "patent US20060128605A1", "about": "“Preventives/remedies for snore or respiratory disturbances during sleep” (AJINOMOTO CO. INC, priority 2003, published 2006)", "key": {"[1]": {"test_system": "sleep apnea and SpO2 decrease during sleep", "settings": "Experiment 3, glycine tablets (4 tablets) before bedtime", "procedure": "(§1) In addition, sleep apnea and arterial blood oxygen saturation (SpO2) were evaluated using a sleep tester LT-200 manufactured by FUKUDA DENSHI Co., Ltd. (Japan). […] The test recipient was completely free of regular medication, and had no habit of taking nutritional supplements or nutritional supports. […] The test recipient took an appropriate number (2-4) of the glycine tablets or the control tablets, and interviewed a family member the next morning as to the presence or absence of snoring and the level thereof, without informing the family member of the kind of the tablets and whether they took the tablets.\nThe arterial blood oxygen saturation (SpO2) and air flow in the mouth-nose during sleep were measured using a sleep tester LT-200 manufactured by FUKUDA DENSHI Co., Ltd. The arterial blood oxygen saturation (SpO2) was measured using a sensor attached to the tip of the second finger of the left hand, and a decrease in the arterial blood oxygen saturation (SpO2) to not more than 93% which lasted for not less than 10 seconds was taken as SpO2 decrease. The number of SpO2 decrease per one day and per one hour and the minimum SpO2 of one day were determined. The air flow in the mouth-nose part was measured by a thermocapsule method, and a decrease in the flow in the mouth-nose part to not more than 50% which lasted for not less than 10 sec was defined as hypopnea. The occurrence of SpO2 decrease along with hypopnea was counted as apnea and the number of apnea per one day and per one hour was determined. Simultaneously, tracheal sounds during sleep were picked up through a mike set near laryngeal prominence.\nThe sleep apnea suppressing effect of glycine was evaluated. […] Tracheal sounds during sleep, which is considered to reflect the snoring sound, were simultaneously recorded."}, "[2]": {"test_system": "snoring of the test recipient during sleep", "test": "snoring evaluation by a family member after tablets taken before bedtime", "type": "in vivo, human", "settings": "Experiment 1", "procedure": "as §1\nThe presence or absence of snoring during sleep was evaluated the next morning by a family member into three levels of minus (−; snoring was not heard or like sleep breath), plus (+; medium level snoring), two plus (++; extremely noisy and severe snoring). The presence or absence of snoring when the glycine tablets and control tablets were taken before bedtime, and nothing was taken before bedtime was counted."}, "[3]": {"test_system": "male adults having sleep apnea syndrome", "settings": "glycine 3 g 1 hour before sleep", "procedure": "For confirmation of the effect of glycine on respiratory disorders during sleep, a double blind crossover test was performed with 10 male adults having sleep apnea syndrome as evidenced by more than 5 of the following AHI (apnea hypopnea index per 1 hour). Glycine (3 g) was administered 1 hour before sleep and, as the placebo, maltose adjusted to an indistinguishable taste was used.\nSleep polygraph data such as electroencephalogram, electromyogram, arterial blood oxygen saturation, and the like during sleep were measured using the Alice system manufactured by Respironics Co., Ltd. (USA). The air flow of the mouth-nose part was measured, and hypopnea was defined to mean a state where a decrease to not more than 50% requires not less than 10 second to recover to not less than 60%. Furthermore, a decrease in the arterial blood oxygen saturation by not less than 3% associated with hypopnea was taken as apnea. The total of the incidents of apnea and hypopnea per 1 hour was taken as an apnea hypopnea index (AHI) and used as a severity index of respiratory disorder during sleep."}, "sleep apnea syndrome": {"test_system": "sleep apnea syndrome", "settings": "animal experiments using rats; cited from earlier work"}, "[4]": {"settings": "SpO2 not more than 93% for not less than 10 seconds"}, "[5]": {"settings": "2 glycine tablets (glycine 490 mg) before bedtime, 9 days of observation"}, "[6]": {"settings": "4 glycine tablets (glycine 980 mg) before bedtime, 8 days of observation"}}}
{"compound": "NCC(=O)O", "note": "[glycine]", "values": [{"measurement": "SpO2 lowest value during sleep", "setting": "[1]", "value": "88 ± 1", "unit": "%"}, {"measurement": "apnea (times/day)", "setting": "[1]", "value": "11 ± 4", "unit": "times/day"}, {"measurement": "apnea (times/hr)", "setting": "[1]", "value": "1.9 ± 0.9", "unit": "times/hr"}, {"measurement": "SpO2 decrease (times/day)", "setting": "[1]; [4]", "value": "14 ± 5", "unit": "times/day"}, {"measurement": "SpO2 decrease (times/hr)", "setting": "[1]; [4]", "value": "2.5 ± 1.2", "unit": "times/hr"}, {"measurement": "snoring evaluation results ++, number of days (severe snoring)", "setting": "[2]; [5]", "value": 2, "unit": "days"}, {"measurement": "snoring evaluation results ++, percentage of total observation days", "setting": "[2]; [5]", "value": "(22%)"}, {"measurement": "snoring evaluation results +, number of days (medium level snoring)", "setting": "[2]; [5]", "value": 3, "unit": "days"}, {"measurement": "snoring evaluation results +, percentage of total observation days", "setting": "[2]; [5]", "value": "(33%)"}, {"measurement": "snoring evaluation results −, number of days (snoring not heard or like sleep breath)", "setting": "[2]; [5]", "value": 4, "unit": "days"}, {"measurement": "snoring evaluation results −, percentage of total observation days", "setting": "[2]; [5]", "value": "(44%)"}, {"measurement": "snoring evaluation results ++, number of days (severe snoring)", "setting": "[2]; [6]", "value": 0, "unit": "days"}, {"measurement": "snoring evaluation results ++, percentage of total observation days", "setting": "[2]; [6]", "value": "(0% a))"}, {"measurement": "snoring evaluation results +, number of days (medium level snoring)", "setting": "[2]; [6]", "value": 2, "unit": "days"}, {"measurement": "snoring evaluation results +, percentage of total observation days", "setting": "[2]; [6]", "value": "(25%)"}, {"measurement": "snoring evaluation results −, number of days (snoring not heard or like sleep breath)", "setting": "[2]; [6]", "value": 6, "unit": "days"}, {"measurement": "snoring evaluation results −, percentage of total observation days", "setting": "[2]; [6]", "value": "(75%)"}, {"measurement": "average value of AHI, test recipients of 40 years old or over with BMI exceeding 28", "setting": "[3]; 4 cases, placebo 18.9 (p=0.046)", "value": 10.6}, {"measurement": "average value of AHI, test recipients of 40 years old or over", "setting": "[3]; 6 cases, entire sleep stage, placebo 17.2 (p=0.062)", "value": 11.5}, {"measurement": "respiratory disorder (hypopnea or apnea, AHI) in the early stage of sleep", "setting": "[3]; early stage of sleep (3 hours), FIG. 4 right graph", "value": "improved"}, {"measurement": "average value of AHI, nonrem sleep stage (NREM)", "setting": "[3]; entire sleep stage, 10 male adults, placebo 11.3", "value": 10.8}, {"measurement": "average value of AHI, entire period (Total) of rem and nonrem sleep stage", "setting": "[3]; entire sleep stage, 10 male adults, placebo 15.0", "value": 13.4}, {"measurement": "average value of AHI, rem sleep stage (REM)", "setting": "[3]; entire sleep stage, 10 male adults, placebo 33.5", "value": 26.8}]}
{"compound": "Nc1nc2ccc(OC(F)(F)F)cc2s1", "note": "[riluzole]", "values": [{"measurement": "effectiveness for the treatment of sleep apnea syndrome", "setting": "sleep apnea syndrome", "value": "has been confirmed"}]}
